From PMC12655438, “Inhibitory Activity of Calcium and Sodium Ion Channels of Neurotoxic Protoplaythoa variabilis V-Shape Helical Peptide Analogs and Their Neuroprotective Effect In Vitro” (Pharmaceuticals, 2025)
pIC50: −log10 of the molar value. Where two headings read alike, the source gives them in different places. Where a SMILES comes first, the peptide text is derived from it.

Key:
Cav channels (Cav2.2) = conditions: cited from earlier work
[1] = test system: human neuroblastoma (SH-SY5Y) cells
[2] = TFA salt, lyophilized powder, ref China Peptides (custom peptide service), cited from earlier work
[3] = test system: voltage-dependent Ca^2+ channel (ICa) in bovine chromaffin cells; assay type: cell-based; conditions: for Block of ICa: 50 ms pulses to 0 mV, holding -80 mV, 10 mM Ca2+, 5 μM TTX, pH 7.4, 22–24 °C, end of 1-min superfusion; for pIC50: peak ICa, fit to an exponential function, 1, 3, 10 μM, read-out: IC50 for calcium current blockade
[4] = test system: sodium inward current (INa) in bovine chromaffin cells; assay: Sodium current (INa) block, whole-cell patch clamp in bovine chromaffin cells; assay type: cell-based; conditions: for Block of INa: 10 ms pulses to 0 mV, holding -80 mV, 0 mM external Ca2+, pH 7.4, 22–24 °C, end of 3-min superfusion (legend: 1 min), mean ± SEM, n = 3–6 cells; for pIC50: peak INa, fit to an exponential function, 1, 3, 10 μM, read-out: IC50 for sodium current blockade
[5] = test system: voltage-gated sodium channels in vertebrates; conditions: ref [14]; cited from earlier work
Text: Previously, we investigated the synthetic versions of the linear PpVα and the folded PpVα analog, which contains an internal single disulfide bond, and the linear, chimeric PpVα.

[6] = test system: intracellular calcium level ([Ca^2+]c) in bovine chromaffin cells; assay: Intracellular calcium level with Fluo-4-AM in K+-stimulated bovine chromaffin cells; assay type: cell-based; conditions: for Reduction of [Ca2+]c: Fluo-4, K+ stimulus (text 35 µM, legend 35 mM), room temperature, fluorescence 488/522 nm, mean ± SEM; for Reduction of fluorescence compared with baseline: p ≤ 0.001; for pIC50: K+-stimulated, fit to an exponential function, 1, 3, 10 μM, read-out: IC50 for depression of the intracellular calcium increment
[7] = test system: human neuroblastoma (SH-SY5Y) cells; conditions: for Cell viability: 24 h
[8] = test system: voltage-dependent potassium current (IKv) in bovine chromaffin cells; assay: Voltage-dependent potassium current (IKv) block, whole-cell patch clamp in bovine chromaffin cells; assay type: cell-based; conditions: 10 µM; 400 ms pulses to 100 mV, holding -80 mV, 2 mM Ca2+, 200 μM Cd2+, 22–24 °C; mean ± SEM, n = 3–4 cells
zebrafish larvae = conditions: ref [14],[53], cited from earlier work
[9] = 1 μM, mean ± SEM, n = 3–5 cells (legend: 5–6)
[10] = 3 μM, mean ± SEM of 5–6 experiments
[11] = 10 μM, mean ± SEM of 5–6 experiments

| Compound | Block of ICa [3, 9] [%] | Block of ICa [3, 10] [%] | Block of ICa [3, 11] [%] | pIC50 [3] | Block of INa ([4]; 1 μM) [%] | Block of INa ([4]; 3 μM) [%] | Block of INa ([4]; 10 μM) [%] | pIC50 [4] | Reduction of [Ca2+]c ([6]; 1 μM) [%] | Reduction of [Ca2+]c ([6]; 3 μM) [%] | Reduction of [Ca2+]c ([6]; 10 μM) [%] | Reduction of fluorescence compared with baseline ([6]; 10 μM) | pIC50 [6] | Cell viability ([7]; 1 μM) [%] | Cell viability ([7]; 3 μM) [%] | Cell viability ([7]; 10 μM) [%] | Block of IKv [8] [%] | further results |
| --- | --- | --- | --- | --- | --- | --- | --- | --- | --- | --- | --- | --- | --- | --- | --- | --- | --- | --- |
| ziconotide | – | – | – | – | – | – | – | – | – | – | – | – | – | – | – | – | – | Cav channel inhibition (Cav channels (Cav2.2)): highly selective and potent inhibitor of Cav channels |
| NC1=N[C@H](O)[C@H]2[C@H]3O[C@]4(O)O[C@@H]([C@@H](O)[C@@]2(N1)[C@@H]4O)[C@]3(O)CO [tetrodotoxin] | – | – | – | – | – | – | – | – | – | – | – | – | – | – | – | – | – | Cell viability with TTX [1]: 85.41%; Neuroprotection against veratridine, in words [1]: almost wholly reverted the cellular damage |
| CC[C@H](C)[C@H](NC(=O)[C@H](CC(C)C)NC(=O)[C@H](CCC(=O)O)NC(=O)CN)C(=O)N[C@@H](CCCCN)C(=O)N[C@@H](CCSC)C(=O)N[C@@H](CCCCN)C(=O)N[C@@H](Cc1ccc(O)cc1)C(=O)N[C@@H](Cc1c[nH]c2ccccc12)C(=O)N[C@H](C(=O)N[C@@H](CC(C)C)C(=O)N[C@@H](CC(N)=O)C(=O)N[C@H](C(=O)N1CCC[C@H]1C(=O)N[C@@H](C)C(=O)N[C@@H](CO)C(=O)N[C@H](C(=O)N[C@@H](CS)C(=O)N[C@@H](CC(=O)O)C(=O)N[C@@H](CCC(=O)O)C(=O)N[C@@H](Cc1ccc(O)cc1)C(=O)N[C@@H](CS)C(=O)N[C@@H](Cc1c[nH]c2ccccc12)C(=O)N[C@@H](CO)C(=O)N[C@@H](CCC(N)=O)C(=O)N[C@@H](CCSC)C(=O)N[C@@H](CC(C)C)C(=O)N[C@@H](CC(C)C)C(=O)N[C@@H](Cc1ccc(O)cc1)C(=O)N[C@@H](CCCCN)C(=O)N[C@@H](CCCCN)C(=O)N[C@@H](CO)C(N)=O)C(C)C)C(C)C)[C@@H](C)CC [CHI] (H-GELIKMKYWILNVPASVCDEYCWSQMLLYKKS-NH2; N-terminus assumed) | 10.74 ± 0.61 | 14.28 ± 2.08 | 63.43 ± 4.76 | 5.05 | 14.79 ± 2.16 | 22.05 ± 3.61 | 75.57 ± 5.05 | 5.12 | 33.2 ± 9.4 | 36.0 ± 8.2 | 65.0 ± 4.7 | more than 60% | 5.16 | 71 | 73 | 67 | 1.21 ± 2.42 | Solubility ([2]; in 20%ACN/80%H2O): 1 mg/mL; Effect on INa at low concentrations ([4]; 1 and 3 μM): no effect on INa; Block of voltage-gated sodium channels in vertebrates [5]: effective blockers of voltage-gated sodium channels in vertebrates |
| COc1ccc(C(=O)O[C@H]2CC[C@@]3(C)[C@@H]4CC[C@H]5[C@]6(O)C[C@H](O)[C@@]7(O)[C@@H](CN8C[C@@H](C)CC[C@H]8[C@@]7(C)O)[C@]6(O)C[C@@]53O[C@]24O)cc1OC [veratridine] | – | – | – | – | – | – | – | – | – | – | – | – | – | – | – | – | – | Cell viability, inducer alone (VTD) ([1]; veratridine 24 h, no peptide, untreated control 100, mean): 49.21%; Mortality rate compared with untreated cells ([1]; veratridine, 24 h): 50% |
| COc1ccc2[nH]cc(CCNC(C)=O)c2c1 [melatonin, reference compound] | – | – | – | – | – | – | – | – | – | – | – | – | – | – | – | – | – | Reversion of cell damage ([7]; O/R (3 μM/4 μM) 24 h): approximately 80%; Cell viability with MLT ([7]; positive control against O/R, mean): 82% |
| CC[C@H](C)[C@H](NC(=O)[C@H](Cc1c[nH]c2ccccc12)NC(=O)[C@H](Cc1ccc(O)cc1)NC(=O)[C@@H](N)CCCCN)C(=O)N[C@@H](CC(C)C)C(=O)N[C@@H](CC(N)=O)C(=O)N[C@H](C(=O)N1CCC[C@H]1C(=O)N[C@@H](C)C(=O)N[C@@H](CO)C(=O)N[C@H](C(=O)N[C@@H](CS)C(=O)N[C@@H](CC(=O)O)C(=O)N[C@@H](CCC(=O)O)C(=O)N[C@@H](Cc1ccc(O)cc1)C(=O)N[C@@H](CS)C(=O)N[C@@H](Cc1c[nH]c2ccccc12)C(=O)N[C@@H](CO)C(=O)N[C@@H](CCC(N)=O)C(=O)N[C@@H](CCSC)C(=O)N[C@@H](CC(C)C)C(=O)N[C@@H](CC(C)C)C(=O)N[C@@H](Cc1ccc(O)cc1)C(=O)N[C@@H](CCCCN)C(=O)N[C@@H](CCCCN)C(=O)N[C@@H](CO)C(N)=O)C(C)C)C(C)C [PPA] (H-KYWILNVPASVCDEYCWSQMLLYKKS-NH2; N-terminus assumed) | 19.92 ± 5.32 | 38.50 ± 7.14 | 52.86 ± 8.69 | 5.06 | 14.80 ± 5.05 | 28.92 ± 4.60 | 54.32 ± 8.29 | 5.04 | 38.5 ± 7.1 | 38.7 ± 10.8 | 60.9 ± 6.1 | more than 60% | 5.16 | 77 | 71 | 60 | 14.04 ± 5.99 | Solubility ([2]; in 30%ACN/70%H2O): 1 mg/mL; Neuroprotection against veratridine, in words ([1]; veratridine, 24 h): lower neuroprotection than SSB and CHI; Survival rate of zebrafish larvae (zebrafish larvae; 1–30 µM, three different times): decrease in survival rate to a minimum, for example, within 20 min at 3 µM peptide; LD50 in zebrafish larvae (zebrafish larvae; concentration causing 50% of death): 21.23 µM |
